The values below come from ChEMBL document CHEMBL5365531, “Structure-Activity Relationship Studies of SARS-CoV-2 Main Protease Inhibitors Containing 4-Fluorobenzothiazole-2-carbonyl Moieties” (J Med Chem, 2023).

The subject of data set [1] is SARS-CoV-2. Briefly: Antiviral activity against SARS-CoV-2 JPN/TY/WK-521 infected in Vero E6 cells preincubated with cells for 1 day followed by viral infection and measured after 3 days by qRT-PCR analysis. The note with it: Severe acute respiratory syndrome coronavirus 2, JPN/TY/WK-521, Vero C1008. Type of data set: functional, organism-based. In general terms: Real-time PCR tracks product formation cycle by cycle.

Data set [2] is described as follows: Cytotoxicity against African green monkey Vero E6 cells incubated for 3 days by WST-8 assay. Type of data set: toxicity, cell-based, Vero C1008. The note with it: chlorocebus sabaeus, time 3 day. For orientation: Tetrazolium assays rely on reduction of a dye to a coloured formazan, in cell work by metabolically active cells.
The subject of data set [3] is SARS-CoV-2. Briefly: Antiviral activity against SARS-CoV-2 JPN/TY/WK-521 infected in Vero E6 cells assessed as fold change preincubated with cells for 1 day followed by viral infection and measured after 3 days by qRT-PCR analysis relative to TKB245. In kind it is functional, Severe acute respiratory syndrome coronavirus 2. To be noted: time 4 day.
The test system of data set [4] is SARS-CoV-2. Put plainly: Antiviral activity against SARS-CoV-2 JPN/TY/WK-521 infected in Vero E6 cells assessed as fold change preincubated with cells for 1 day followed by viral infection and measured after 3 days by qRT-PCR analysis relative to 7-fluoro-N-((S)-1-(((S)-1-(4-fluorobenzo[d]thiazol-2-yl)-1-oxo-3-((S)-2-oxopyrrolidin-3-yl)propan-2-yl)amino)-3,3-dimethyl-1-oxobutan-2-yl)-4-methoxy-1H-indole-2-carboxamide. To be noted: time 4 day. Type of data set: functional, Severe acute respiratory syndrome coronavirus 2.

Data set [5] concerns SARS-CoV-2. Briefly: Antiviral activity against SARS-CoV-2 infected in Vero E6 cells preincubated with cells for 1 day followed by viral infection and measured after 3 days by qRT-PCR analysis. In kind it is functional, organism-based. The note with it: Severe acute respiratory syndrome coronavirus 2, Vero C1008.
In data set [6] the test system is SARS-CoV-2. Briefly: Antiviral activity against SARS-CoV-2 infected in Vero E6 cells assessed as fold change preincubated with cells for 1 day followed by viral infection and measured after 3 days by qRT-PCR analysis relative to YH-53. In kind it is functional, Severe acute respiratory syndrome coronavirus 2. The note with it: time 4 day.
The next data set has as its system MT2. Put plainly: Cytotoxicity against human MT2 cells assessed as reduction in cell viability at 3 uM incubated for 12 days by CCK-8 assay. In kind it is toxicity, cell-based. To be noted: mt2, 288 h, time 12 day.
The test system of the next data set is PBMC. Briefly: Cytotoxicity against human PBMC cells assessed as reduction in cell viability at 3 uM incubated for 12 days by CCK-8 assay. Type of data set: toxicity, cell-based. To be noted: 288 h, time 12 day.
The test system of another data set is MOLT-4. Briefly: Cytotoxicity against human MOLT-4 cells assessed as reduction in cell viability at 3 uM incubated for 12 days by CCK-8 assay. To be noted: molt-4, 288 h, time 12 day. Type of data set: toxicity, cell-based.

The structures appear in SMILES notation.

One may read the EC50 as the concentration that produces a half-maximal response. The term CC50 denotes the concentration that lowers cell viability or growth by half. For the compound `CC(C)(C)[C@H](NC(=O)C(F)(F)F)C(=O)N1C[C@@H]2CCC[C@@H]2[C@H]1C(=O)N[C@@H](C[C@@H]1CCNC1=O)C(=O)c1nc2c(F)cccc2s1`, the concentration giving a half-maximal response (EC50) in the data set on SARS-CoV-2 [1] amounted to 95 nM. The CC50 at 72 h in [2] was > 100000 nM. Besides, the “fold change (FC)” value in the data set with SARS-CoV-2 [3] is 1.6.
`COc1cccc2[nH]c(C(=O)N3C[C@H]4[C@@H]([C@H]3C(=O)N[C@@H](C[C@@H]3CCNC3=O)C(=O)c3nc5ccccc5s3)C4(C)C)cc12` registered a 50% effective concentration (EC50) with SARS-CoV-2 [1] of 2500 nM. Besides, in [2], the CC50 at 72 h is > 100000 nM. Also, the “fold change (FC)” value in the data set with SARS-CoV-2 [4] turned out to be 11.
On to `CC(C)C[C@H](NC(=O)[C@@H](NC(=O)C(F)(F)F)C(C)(C)C)C(=O)N[C@@H](C[C@@H]1CCNC1=O)C(=O)c1nc2c(F)cccc2s1`, for which the response with SARS-CoV-2 [1] was half-maximal at 360 nM (EC50). In addition, the half-maximal cytotoxic concentration (CC50) at 72 h in data set [2] is > 100000 nM. Also, the “fold change (FC)” value with SARS-CoV-2 [4] is 1.
In the case of `CC(C)(C)[C@H](NC(=O)C(F)(F)F)C(=O)NC1(C(=O)N[C@@H](C[C@@H]2CCNC2=O)C(=O)c2nc3c(F)cccc3s2)CCC(F)(F)C1` (some centres not stated), in the data set on SARS-CoV-2 [1], the EC50 came out at 2400 nM. For the same compound, in [2], the half-maximal cytotoxic concentration (CC50) at 72 h is > 100000 nM. Besides, the “fold change (FC)” value in the data set with SARS-CoV-2 [3] came to 90.
`CC1(C)[C@@H]2[C@@H](C(=O)N[C@@H](C[C@@H]3CCNC3=O)C(=O)c3nc4c(F)cccc4s3)N(C(=O)[C@H](CC(F)(F)F)NC(=O)C(F)(F)F)C[C@@H]21` came in with a concentration giving a half-maximal response (EC50) with SARS-CoV-2 [1] of 2800 nM. Besides, the cytotoxic concentration (CC50) at 72 h in data set [2] is > 100000 nM. Besides, the “fold change (FC)” value in the data set with SARS-CoV-2 [3] is 34.
With `CC1(C)[C@@H]2[C@@H](C(=O)N[C@@H](C[C@@H]3CCNC3=O)C(=O)c3nc4c(F)cccc4s3)N(C(=O)c3cc4c(F)ccc(F)c4[nH]3)C[C@@H]21`, in the data set with SARS-CoV-2 [1], a half-maximal effect (EC50) was put at 750 nM. For the same compound, the CC50 at 72 h in [2] was > 100000 nM. Besides, the “fold change (FC)” value with SARS-CoV-2 [4] came out at 3.1.
`CC1(C)[C@@H]2[C@@H](C(=O)N[C@@H](C[C@@H]3CCNC3=O)C(=O)c3nc4c(F)cccc4s3)N(C(=O)[C@H](CCC(F)(F)F)NC(=O)C(F)(F)F)C[C@@H]21` returned a 50% effective concentration (EC50) in the data set on SARS-CoV-2 [1] of 590 nM. The CC50 at 72 h in data set [2] was > 100000 nM. Further, in the data set with SARS-CoV-2 [3], the “fold change (FC)” value is reported as 14.
With `COc1ccc(F)c2[nH]c(C(=O)N[C@H](C(=S)N[C@@H](C[C@@H]3CCNC3=O)C(=O)c3nc4c(F)cccc4s3)C(C)(C)C)cc12`, the EC50 with SARS-CoV-2 [5] amounted to 340 nM. The CC50 at 72 h in data set [2] was > 100000 nM. In addition, the “fold change (FC)” value in the data set with SARS-CoV-2 [6] is on record as 0.16.
Regarding `CC(C)(C)[C@H](NC(=O)C(F)(F)F)C(=O)N1C[C@H]2[C@@H]([C@H]1C(=O)N[C@@H](C[C@@H]1CCNC1=O)C(=O)c1nc3c(Br)cccc3s1)C2(C)C`, the half-maximal effective concentration (EC50) with SARS-CoV-2 [1] worked out at 63 nM. For the same compound, the CC50 at 72 h in [2] was > 100000 nM. Also, in the data set with SARS-CoV-2 [3], the “fold change (FC)” value is recorded as 2.9.
Compound `COc1ccc(F)c2[nH]c(C(=O)N3C[C@H]4[C@@H]([C@H]3C(=O)N[C@@H](C[C@@H]3CCNC3=O)C(=O)c3nc5c(F)cccc5s3)C4(C)C)cc12` came in with a concentration for a half-maximal effect (EC50) in the data set on SARS-CoV-2 [1] of 560 nM. The 50% cytotoxic concentration (CC50) at 72 h in data set [2] is > 100000 nM. Also, in the data set on SARS-CoV-2 [4], the “fold change (FC)” value is 2.7.
As for `CC(C)(C)[C@H](NC(=O)C(F)(F)F)C(=O)N1C[C@H]2[C@@H]([C@H]1C(=O)N[C@@H](C[C@@H]1CCNC1=O)C(=O)c1nc3c(Cl)cccc3s1)C2(C)C`, a half-maximal response in the data set on SARS-CoV-2 [1] (EC50) required 19 nM. The CC50 at 72 h in data set [2] is > 100000 nM. Besides, the “fold change (FC)” value with SARS-CoV-2 [3] stood at 0.86.
For `CC(C)(F)[C@H](NC(=O)C(F)(F)F)C(=O)N1C[C@H]2[C@@H]([C@H]1C(=O)N[C@@H](C[C@@H]1CCNC1=O)C(=O)c1nc3c(F)cccc3s1)C2(C)C`, in that order: 250 nM, > 100000 nM and 21.
For the compound `CC(C)(C)[C@H](NC(=O)C(F)(F)F)C(=O)N1C[C@H]2[C@@H]([C@H]1C(=O)N[C@@H](C[C@@H]1CCNC1=O)C(=O)c1nc3ccccc3s1)C2(C)C`, the half-maximal effective concentration (EC50) with SARS-CoV-2 [1] was found to be 15 nM. The CC50 at 72 h in [2] is > 100000 nM. Moreover, the “fold change (FC)” value in the data set with SARS-CoV-2 [4] is given as 0.071.
The compound `COc1cccc2[nH]c(C(=O)N[C@H](C(=O)N[C@@H](C[C@@H]3CCNC3=O)C(=O)c3nc4ccccc4s3)C(C)(C)C)cc12` returned a concentration for a half-maximal effect (EC50) in the data set with SARS-CoV-2 [5] of 2200 nM. Besides, the 50% cytotoxic concentration (CC50) at 72 h in data set [2] is > 100000 nM.
Regarding `CC(C)C(=O)OC[C@H]1O[C@@H](n2ccc(NO)nc2=O)[C@H](O)[C@@H]1O` [MOLNUPIRAVIR], the Activity entry with MT2 is given as “Toxic”; in the data set on PBMC it was “Non-Toxic”; in the data set on MOLT-4, “Non-Toxic”.
For `COc1ccc(F)c2[nH]c(C(=O)N[C@H](C(=O)N[C@@H](C[C@@H]3CCNC3=O)C(=O)c3nc4c(F)cccc4s3)C(C)(C)C)cc12`, the concentration for a half-maximal effect (EC50) in the data set on SARS-CoV-2 [5] amounted to 290 nM. Moreover, the 50% cytotoxic concentration (CC50) at 72 h in data set [2] was > 100000 nM. Moreover, the “fold change (FC)” value in the data set on SARS-CoV-2 [6] came to 0.13.
